From article PMC6791383, “A side-by-side evaluation of [^18F]FDOPA enantiomers for non-invasive detection of neuroendocrine tumors by positron emission tomography” (Oncotarget, 2019)

How the values were obtained:
COLO-320 xenografts [1] = experiment: In vivo PET-CT quantitative image analysis, COLO-320 xenografts; conditions: COLO-320 tumors, NSG mice, 9MBq
Procedure: (§1) All animal studies were carried out according to regulations set forth and approved by the Johns Hopkins Animal Care and Use Committee. Female, 6- to 8-weeks-old immunodeficient NOD scid gamma (NSG) mice were subcutaneously inoculated with 1 million PC12, STC-1 or COLO-320 cells in […] of Hank’s balanced salt solution in the top flank. Tumors of 4–6 mm in diameter (typically 14-21 days post inoculation) were utilized for in vivo imaging or ex vivo biodistribution studies.
(§2) Mice (n=4) were injected with 9MBq (250μCi) of each tracer in 150μL of saline intravenously and anesthetized with 3% isoflurane prior to being placed on the scanner bed. Mice were kept warm with an external light source and maintained at 1% isoflurane levels while being scanned. PET imaging (2 beds; 10 min per bed) was carried out using an ARGUS small-animal PET/CT scanner (Sedecal). A CT scan (512 projections) was obtained at the end of each PET scan for anatomical co-registration. For in vivo blocking experiments, mice were injected with 10meq of LAT1 inhibitor. PET data were reconstructed using the 2-dimensional ordered subsets-expectation maximization algorithm (2D-OSEM) and corrected for dead time and radioactive decay. Data visualization and image generation were carried out using Amira 2019.1 (ThermoFisher Scientific).
(§3) Quantitative in vivo image analysis was carried out in AMIDE (SourceForge) 1.0.4 utilizing ellipsoid region-of-interest volume integrations with 3 slices entailing a depth of 1.9 mm per slice. The %ID per cc values were calculated based on a calibration factor obtained from a phantom (known radioactive quantity in a known volume).

[2] = system: NET xenografts (STC-1, PC12, COLO-320); experiment: Ex vivo biodistribution, across all NET mouse models; format: in vivo, mice; conditions: for brain accumulation, average in all NET mice: average over STC-1, COLO-320 and PC12 mice; for retention in small intestines, fold lower than L-[^18F]FDOPA: all NET models
Procedure: as §1
(§4) Mice (n=5 per group) were intravenously injected with 1.5MBq (40μCi) of each tracer in 150μL of saline. Ex vivo biodistribution studies were performed at 30min and 120min time points after tracer administration. Blood, liver, spleen, heart, lungs, kidneys, small intestines, stomach, muscle, fat, bone, bladder, brain and tumor tissues were retrieved, weighed, and counted in an automated gamma counter (1282 Compugamma CS). Percentage injected dose per gram (%ID/g) values were calculated based on normalization to external standards, counted in triplicate, and accounted for signal-decay correction.

PC12 xenografts [3] = experiment: In vivo PET-CT quantitative image analysis, PC12 xenografts; conditions: PC12 tumors, NSG mice, 9MBq
Procedure: as §1, §2, §3

PC12 xenografts [4] = experiment: Ex vivo biodistribution in NSG mice bearing PC12 xenografts; conditions: for Biodistribution, Bladder / Biodistribution, Blood / Biodistribution, Bone / Biodistribution, Brain / Biodistribution, Fat / Biodistribution, Heart / Biodistribution, Kidneys / Biodistribution, Liver / Biodistribution, Lungs / Biodistribution, Muscle / Biodistribution, Pancreas / Biodistribution, Small Intestines / Biodistribution, Spleen / Biodistribution, Stomach / Biodistribution, Tumor: PC12 xenograft NSG mice, 1.5MBq i.v.
Procedure: as §1, §4

COLO-320 xenografts [5] = experiment: Ex vivo biodistribution in NSG mice bearing COLO-320 xenografts; conditions: for Biodistribution, Bladder / Biodistribution, Blood / Biodistribution, Bone / Biodistribution, Brain / Biodistribution, Fat / Biodistribution, Heart / Biodistribution, Kidneys / Biodistribution, Liver / Biodistribution, Lungs / Biodistribution, Muscle / Biodistribution, Pancreas / Biodistribution, Small Intestines / Biodistribution, Spleen / Biodistribution, Stomach / Biodistribution, Tumor: COLO-320 xenograft NSG mice, 1.5MBq i.v.
Procedure: as §1, §4

PC12 cells = experiment: In vitro uptake (binding) assay in PC12 cells; format: cell-based; conditions: 30mins incubation, 1 million cells
Procedure: Both [^18F]FDOPA enantiomers were initially assessed in vitro in all NET cells.
In vitro binding assays were carried out, in triplicate, in PBS with 0.5% FBS, for 30mins at ambient temperatures using 1 million cells and repeated three times. Blocking studies were carried out using 10meq of the commercial LAT1 inhibitor, 2-Aminobicyclo[2.2.1]heptane-2-carboxylic acid (TOCRIS, MN, USA). Following incubation with each tracer, cells were rinsed three times with cold PBS prior to being counted on an automated gamma counter (1282 Compugamma CS; Pharmacia/LKBNuclear, Inc.) along with external standards. Obtained counts were converted into percentage incubated dose per million cells based on normalization to external standards. Experiments were performed in triplicate and repeated three times.

Structure (SMILES): N[C@H](Cc1cc(O)c(O)cc1[18F])C(=O)O [D-[^18F]FDOPA, 3,4-dihydroxy-6-[^18F]fluoro-D-phenylalanine]
- tumor uptake, quantitative PET image analysis (COLO-320 xenografts [1]; 30min post i.v. injection): 7.20±0.35 %ID/cc
- tumor uptake, quantitative PET image analysis (COLO-320 xenografts [1]; 120min post i.v. injection): 6.93±0.80 %ID/cc
- brain accumulation, average in all NET mice ([2]; 30min p.i.): 0.31±0.05 %ID/g
- brain accumulation, average in all NET mice ([2]; 120min p.i.): 0.34±0.08 %ID/g
- hepatic retention, fold lower than L-[^18F]FDOPA ([2]; NET models): up to 4 fold
- renal retention, fold lower than L-[^18F]FDOPA ([2]; NET models): up to 4 fold
- retention in small intestines, fold lower than L-[^18F]FDOPA ([2]; 30min): up to 4 fold
- retention in small intestines, fold lower than L-[^18F]FDOPA ([2]; 120min p.i.): up to 7 fold
- tumor uptake, quantitative PET image analysis (PC12 xenografts [3]; 30min post i.v. injection): 8.87±0.31 %ID/cc
- tumor uptake, quantitative PET image analysis (PC12 xenografts [3]; 120min post i.v. injection): 3.96±0.34 %ID/cc
- pancreatic retention, fold lower compared to L-[^18F]FDOPA (PC12 xenografts [4]; PC12 mice, 120min p.i.): ~11 fold
- Biodistribution, Bladder (PC12 xenografts [4]; 30min p.i.): 3.96 %ID/g
- Biodistribution, Blood (PC12 xenografts [4]; 30min p.i.): 2.52 %ID/g
- Biodistribution, Bone (PC12 xenografts [4]; 30min p.i.): 2.71 %ID/g
- Biodistribution, Brain (PC12 xenografts [4]; 30min p.i.): 0.19 %ID/g
- Biodistribution, Fat (PC12 xenografts [4]; 30min p.i.): 0.28 %ID/g
- Biodistribution, Heart (PC12 xenografts [4]; 30min p.i.): 1.28 %ID/g
- Biodistribution, Kidneys (PC12 xenografts [4]; 30min p.i.): 5.30 %ID/g
- Biodistribution, Liver (PC12 xenografts [4]; 30min p.i.): 3.05 %ID/g
- Biodistribution, Lungs (PC12 xenografts [4]; 30min p.i.): 3.53 %ID/g
- Biodistribution, Muscle (PC12 xenografts [4]; 30min p.i.): 0.79 %ID/g
- Biodistribution, Pancreas (PC12 xenografts [4]; 30min p.i.): 28.22 %ID/g
- Biodistribution, Small Intestines (PC12 xenografts [4]; 30min p.i.): 3.76 %ID/g
- Biodistribution, Spleen (PC12 xenografts [4]; 30min p.i.): 3.99 %ID/g
- Biodistribution, Stomach (PC12 xenografts [4]; 30min p.i.): 2.52 %ID/g
- Biodistribution, Tumor (PC12 xenografts [4]; 30min p.i.): 2.96 %ID/g
- Biodistribution, Bladder (PC12 xenografts [4]; 120min p.i.): 5.93 %ID/g
- Biodistribution, Blood (PC12 xenografts [4]; 120min p.i.): 0.48 %ID/g
- Biodistribution, Bone (PC12 xenografts [4]; 120min p.i.): 4.84 %ID/g
- Biodistribution, Brain (PC12 xenografts [4]; 120min p.i.): 0.23 %ID/g
- Biodistribution, Fat (PC12 xenografts [4]; 120min p.i.): 0.34 %ID/g
- Biodistribution, Heart (PC12 xenografts [4]; 120min p.i.): 0.84 %ID/g
- Biodistribution, Kidneys (PC12 xenografts [4]; 120min p.i.): 1.23 %ID/g
- Biodistribution, Liver (PC12 xenografts [4]; 120min p.i.): 0.73 %ID/g
- Biodistribution, Lungs (PC12 xenografts [4]; 120min p.i.): 2.04 %ID/g
- Biodistribution, Muscle (PC12 xenografts [4]; 120min p.i.): 1.02 %ID/g
- Biodistribution, Pancreas (PC12 xenografts [4]; 120min p.i.): 3.42 %ID/g
- Biodistribution, Small Intestines (PC12 xenografts [4]; 120min p.i.): 1.90 %ID/g
- Biodistribution, Spleen (PC12 xenografts [4]; 120min p.i.): 1.86 %ID/g
- Biodistribution, Stomach (PC12 xenografts [4]; 120min p.i.): 1.36 %ID/g
- Biodistribution, Tumor (PC12 xenografts [4]; 120min p.i.): 1.44 %ID/g
- pancreatic retention, fold lower compared to L-[^18F]FDOPA (COLO-320 xenografts [5]; COLO-320 mice, 120min p.i.): 12 fold
- Biodistribution, Bladder (COLO-320 xenografts [5]; 30min p.i.): 3.81 %ID/g
- Biodistribution, Blood (COLO-320 xenografts [5]; 30min p.i.): 2.58 %ID/g
- Biodistribution, Bone (COLO-320 xenografts [5]; 30min p.i.): 3.28 %ID/g
- Biodistribution, Brain (COLO-320 xenografts [5]; 30min p.i.): 0.19 %ID/g
- Biodistribution, Fat (COLO-320 xenografts [5]; 30min p.i.): 0.31 %ID/g
- Biodistribution, Heart (COLO-320 xenografts [5]; 30min p.i.): 1.57 %ID/g
- Biodistribution, Kidneys (COLO-320 xenografts [5]; 30min p.i.): 7.05 %ID/g
- Biodistribution, Liver (COLO-320 xenografts [5]; 30min p.i.): 2.65 %ID/g
- Biodistribution, Lungs (COLO-320 xenografts [5]; 30min p.i.): 3.60 %ID/g
- Biodistribution, Muscle (COLO-320 xenografts [5]; 30min p.i.): 0.89 %ID/g
- Biodistribution, Pancreas (COLO-320 xenografts [5]; 30min p.i.): 34.93 %ID/g
- Biodistribution, Small Intestines (COLO-320 xenografts [5]; 30min p.i.): 3.89 %ID/g
- Biodistribution, Spleen (COLO-320 xenografts [5]; 30min p.i.): 4.77 %ID/g
- Biodistribution, Stomach (COLO-320 xenografts [5]; 30min p.i.): 2.48 %ID/g
- Biodistribution, Tumor (COLO-320 xenografts [5]; 30min p.i.): 3.61 %ID/g
- Biodistribution, Bladder (COLO-320 xenografts [5]; 120min p.i.): 3.68 %ID/g
- Biodistribution, Blood (COLO-320 xenografts [5]; 120min p.i.): 0.51 %ID/g
- Biodistribution, Bone (COLO-320 xenografts [5]; 120min p.i.): 4.10 %ID/g
- Biodistribution, Brain (COLO-320 xenografts [5]; 120min p.i.): 0.19 %ID/g
- Biodistribution, Fat (COLO-320 xenografts [5]; 120min p.i.): 0.29 %ID/g
- Biodistribution, Heart (COLO-320 xenografts [5]; 120min p.i.): 0.80 %ID/g
- Biodistribution, Kidneys (COLO-320 xenografts [5]; 120min p.i.): 1.44 %ID/g
- Biodistribution, Liver (COLO-320 xenografts [5]; 120min p.i.): 0.54 %ID/g
- Biodistribution, Lungs (COLO-320 xenografts [5]; 120min p.i.): 1.52 %ID/g
- Biodistribution, Muscle (COLO-320 xenografts [5]; 120min p.i.): 1.12 %ID/g
- Biodistribution, Pancreas (COLO-320 xenografts [5]; 120min p.i.): 3.12 %ID/g
- Biodistribution, Small Intestines (COLO-320 xenografts [5]; 120min p.i.): 1.46 %ID/g
- Biodistribution, Spleen (COLO-320 xenografts [5]; 120min p.i.): 1.67 %ID/g
- Biodistribution, Stomach (COLO-320 xenografts [5]; 120min p.i.): 0.99 %ID/g
- Biodistribution, Tumor (COLO-320 xenografts [5]; 120min p.i.): 3.72 %ID/g
- in vitro uptake (PC12 cells): 2.97±0.24 % (incubated dose/million cells)
